Experimental data reported in PubChem BioAssay AID1963837 (Molecular Pharmacology Branch, DTP, NCI, 2024).
“And” between values parts separate entries of the source, which are not always exact repeats. Equal values may be shown once.

Test system: 843126-344-R-J1-PDC complex spheroid viability
Test: Anticancer human tumor 843126-344-R-J1-PDC patient-derived melanoma cell line growth inhibition [POLQ]
Settings: for viability, T/C: stronger effect = lower value
How it was run: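 Three-cell-type spheroids modelling solid tumor plus stroma served as the readout system; POL inhibitors were tested individually and in combination, concentration ranges set by clinical Cmax where known.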

[1] = curve of first compound, second compound 0.0316 µM
[2] = curve of first compound, second compound 0.1 µM
[3] = curve of first compound, second compound 0.316 µM
[4] = curve of first compound, second compound 1 µM
[5] = curve of first compound, second compound 3.16 µM
[6] = curve of first compound, second compound 10 µM
[7] = second compound 0.0316 µM, first compound 0.0316 µM
[8] = second compound 0.0316 µM, first compound 0.1 µM
[9] = second compound 0.1 µM, first compound 0.0316 µM
[10] = second compound 0.1 µM, first compound 0.1 µM
[11] = second compound 0.316 µM, first compound 0.0316 µM
[12] = second compound 0.316 µM, first compound 0.1 µM
[13] = second compound 1 µM, first compound 0.0316 µM
[14] = second compound 1 µM, first compound 0.1 µM
[15] = second compound 3.16 µM, first compound 0.0316 µM
[16] = second compound 3.16 µM, first compound 0.1 µM
[17] = second compound 10 µM, first compound 0.0316 µM
[18] = second compound 10 µM, first compound 0.1 µM
[19] = second compound 0.0316 µM, first compound 0.316 µM
[20] = second compound 0.0316 µM, first compound 1 µM
[21] = second compound 0.0316 µM, first compound 3.16 µM
[22] = second compound 0.0316 µM, first compound 10 µM
[23] = second compound 0.1 µM, first compound 0.316 µM
[24] = second compound 0.1 µM, first compound 1 µM
[25] = second compound 0.1 µM, first compound 3.16 µM
[26] = second compound 0.1 µM, first compound 10 µM
[27] = second compound 0.316 µM, first compound 0.316 µM
[28] = second compound 0.316 µM, first compound 1 µM
[29] = second compound 0.316 µM, first compound 3.16 µM
[30] = second compound 0.316 µM, first compound 10 µM
[31] = second compound 1 µM, first compound 0.316 µM
[32] = second compound 1 µM, first compound 1 µM
[33] = second compound 1 µM, first compound 3.16 µM
[34] = second compound 1 µM, first compound 10 µM
[35] = second compound 3.16 µM, first compound 0.316 µM
[36] = second compound 3.16 µM, first compound 1 µM
[37] = second compound 3.16 µM, first compound 3.16 µM
[38] = second compound 3.16 µM, first compound 10 µM
[39] = second compound 10 µM, first compound 0.316 µM
[40] = second compound 10 µM, first compound 1 µM
[41] = second compound 10 µM, first compound 3.16 µM
[42] = second compound 10 µM, first compound 10 µM
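Wherever viability, T/C is given: spheroids exposed to drugs for seven days before readout.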

## CCc1c2c(nc3ccc(O)cc13)-c1cc3c(c(=O)n1C2)COC(=O)[C@]3(O)CC
Compound 0.00316 µM
  viability, T/C: 62.8% and 69.6% and 70%
Compound 0.01 µM
  viability, T/C: 52.5% and 56.2% and 54.6%
Compound 0.0316 µM
  viability, T/C: 61.5% and 68% and 63%
Compound 0.1 µM
  viability, T/C: 71.1% and 62.4% and 61.4%
Compound 0.316 µM
  viability, T/C: 57% and 64% and 62.5%
Compound 1 µM
  viability, T/C: 53.9% and 45.5% and 50.1%
Curve of compound
  IC50: > 1000 nM

## CC[C@@]1(O)C(=O)OCc2c1cc1n(c2=O)Cc2cc3c(CN(C)C)c(O)ccc3nc2-1 + COC1C(OC(N)=O)C(O)C(Oc2ccc3c(O)c(NC(=O)c4ccc(O)c(CC=C(C)C)c4)c(=O)oc3c2C)OC1(C)C
[1]
  IC50: > 100 nM
[2]
  IC50: 96 nM
[3]
  IC50: > 100 nM
[4]
  IC50: 76.9 nM
[5]
  IC50: > 100 nM
[6]
  IC50: > 100 nM
Second compound 0.0316 µM, first compound 0.000316 µM
  viability, T/C: 94.8%
Second compound 0.0316 µM, first compound 0.001 µM
  viability, T/C: 89.7%
Second compound 0.0316 µM, first compound 0.00316 µM
  viability, T/C: 104%
Second compound 0.0316 µM, first compound 0.01 µM
  viability, T/C: 110%
[7]
  viability, T/C: 57.3%
[8]
  viability, T/C: 52.5%
Second compound 0.1 µM, first compound 0.000316 µM
  viability, T/C: 95.7%
Second compound 0.1 µM, first compound 0.001 µM
  viability, T/C: 104%
Second compound 0.1 µM, first compound 0.00316 µM
  viability, T/C: 123%
Second compound 0.1 µM, first compound 0.01 µM
  viability, T/C: 91.4%
[9]
  viability, T/C: 78.2%
[10]
  viability, T/C: 48.7%
Second compound 0.316 µM, first compound 0.000316 µM
  viability, T/C: 114%
Second compound 0.316 µM, first compound 0.001 µM
  viability, T/C: 99.2%
Second compound 0.316 µM, first compound 0.00316 µM
  viability, T/C: 91.1%
Second compound 0.316 µM, first compound 0.01 µM
  viability, T/C: 70.9%
[11]
  viability, T/C: 91.3%
[12]
  viability, T/C: 46.6%
Second compound 1 µM, first compound 0.000316 µM
  viability, T/C: 84.5%
Second compound 1 µM, first compound 0.001 µM
  viability, T/C: 83.8%
Second compound 1 µM, first compound 0.00316 µM
  viability, T/C: 102%
Second compound 1 µM, first compound 0.01 µM
  viability, T/C: 82.4%
[13]
  viability, T/C: 61.5%
[14]
  viability, T/C: 46.6%
Second compound 3.16 µM, first compound 0.000316 µM
  viability, T/C: 92.3%
Second compound 3.16 µM, first compound 0.001 µM
  viability, T/C: 96.3%
Second compound 3.16 µM, first compound 0.00316 µM
  viability, T/C: 101%
Second compound 3.16 µM, first compound 0.01 µM
  viability, T/C: 91%
[15]
  viability, T/C: 63.2%
[16]
  viability, T/C: 54%
Second compound 10 µM, first compound 0.000316 µM
  viability, T/C: 95.5%
Second compound 10 µM, first compound 0.001 µM
  viability, T/C: 109%
Second compound 10 µM, first compound 0.00316 µM
  viability, T/C: 110%
Second compound 10 µM, first compound 0.01 µM
  viability, T/C: 119%
[17]
  viability, T/C: 74.1%
[18]
  viability, T/C: 54%

## COc1cc2cc(C(=O)CCC(=O)O)sc2cc1OC + Nc1ccc(C#CCN(C(=O)Cc2ncc(C(F)(F)F)cc2C(F)(F)F)c2ccc(F)cc2)nn1
[1]
  IC50: > 10000 nM
[2]
  IC50: > 10000 nM
[3]
  IC50: > 10000 nM
[4]
  IC50: > 10000 nM
[5]
  IC50: > 10000 nM
[6]
  IC50: > 10000 nM
[7]
  viability, T/C: 84.1%
[8]
  viability, T/C: 82.5%
[19]
  viability, T/C: 81.6%
[20]
  viability, T/C: 99.8%
[21]
  viability, T/C: 90.2%
[22]
  viability, T/C: 89.2%
[9]
  viability, T/C: 77.8%
[10]
  viability, T/C: 103%
[23]
  viability, T/C: 92%
[24]
  viability, T/C: 102%
[25]
  viability, T/C: 89.9%
[26]
  viability, T/C: 107%
[11]
  viability, T/C: 96.1%
[12]
  viability, T/C: 94.2%
[27]
  viability, T/C: 104%
[28]
  viability, T/C: 96.7%
[29]
  viability, T/C: 108%
[30]
  viability, T/C: 82.3%
[13]
  viability, T/C: 96.7%
[14]
  viability, T/C: 77.7%
[31]
  viability, T/C: 93.8%
[32]
  viability, T/C: 83.2%
[33]
  viability, T/C: 90.1%
[34]
  viability, T/C: 76.8%
[15]
  viability, T/C: 96.9%
[16]
  viability, T/C: 83.7%
[35]
  viability, T/C: 89.1%
[36]
  viability, T/C: 86%
[37]
  viability, T/C: 94.7%
[38]
  viability, T/C: 91%
[17]
  viability, T/C: 77.2%
[18]
  viability, T/C: 84.3%
[39]
  viability, T/C: 92.2%
[40]
  viability, T/C: 79.1%
[41]
  viability, T/C: 92.7%
[42]
  viability, T/C: 94.1%

## O=C(Nc1ccc(O)c(NS(=O)(=O)c2ccc(F)cc2)c1)c1ccc(-c2ccccc2)cc1 + Nc1ccc(C#CCN(C(=O)Cc2ncc(C(F)(F)F)cc2C(F)(F)F)c2ccc(F)cc2)nn1
[1]
  IC50: > 10000 nM
[2]
  IC50: > 10000 nM
[3]
  IC50: > 10000 nM
[4]
  IC50: > 10000 nM
[5]
  IC50: > 10000 nM
[6]
  IC50: > 10000 nM
[7]
  viability, T/C: 82.5%
[8]
  viability, T/C: 94.9%
[19]
  viability, T/C: 91.8%
[20]
  viability, T/C: 80.5%
[21]
  viability, T/C: 82.2%
[22]
  viability, T/C: 73.6%
[9]
  viability, T/C: 91.6%
[10]
  viability, T/C: 102%
[23]
  viability, T/C: 82.2%
[24]
  viability, T/C: 85.4%
[25]
  viability, T/C: 89.1%
[26]
  viability, T/C: 64.8%
[11]
  viability, T/C: 100%
[12]
  viability, T/C: 92.5%
[27]
  viability, T/C: 98.8%
[28]
  viability, T/C: 84.3%
[29]
  viability, T/C: 96.3%
[30]
  viability, T/C: 61.5%
[13]
  viability, T/C: 98.3%
[14]
  viability, T/C: 97.1%
[31]
  viability, T/C: 81.3%
[32]
  viability, T/C: 90%
[33]
  viability, T/C: 82.2%
[34]
  viability, T/C: 67.8%
[15]
  viability, T/C: 92%
[16]
  viability, T/C: 91.4%
[35]
  viability, T/C: 89.5%
[36]
  viability, T/C: 86.1%
[37]
  viability, T/C: 78.8%
[38]
  viability, T/C: 67.3%
[17]
  viability, T/C: 82.3%
[18]
  viability, T/C: 74.1%
[39]
  viability, T/C: 86.9%
[40]
  viability, T/C: 72.4%
[41]
  viability, T/C: 80.6%
[42]
  viability, T/C: 55.4%

## Nc1ccn(C2OC(CO)C(O)C2(F)F)c(=O)n1 (stereo not given) + Nc1ccc(C#CCN(C(=O)Cc2ncc(C(F)(F)F)cc2C(F)(F)F)c2ccc(F)cc2)nn1
[1]
  IC50: < 31.6 nM
[2]
  IC50: < 31.6 nM
[3]
  IC50: < 31.6 nM
[4]
  IC50: < 31.6 nM
[5]
  IC50: < 31.6 nM
[6]
  IC50: < 31.6 nM
[7]
  viability, T/C: 36.5%
[8]
  viability, T/C: 35.5%
[19]
  viability, T/C: 38.9%
[20]
  viability, T/C: 38%
[21]
  viability, T/C: 37.6%
[22]
  viability, T/C: 35%
[9]
  viability, T/C: 43%
[10]
  viability, T/C: 41.8%
[23]
  viability, T/C: 38.7%
[24]
  viability, T/C: 39.8%
[25]
  viability, T/C: 38.5%
[26]
  viability, T/C: 41.8%
[11]
  viability, T/C: 48.2%
[12]
  viability, T/C: 38.5%
[27]
  viability, T/C: 36%
[28]
  viability, T/C: 38%
[29]
  viability, T/C: 38.9%
[30]
  viability, T/C: 37.3%
[13]
  viability, T/C: 36.3%
[14]
  viability, T/C: 35.3%
[31]
  viability, T/C: 46.5%
[32]
  viability, T/C: 35%
[33]
  viability, T/C: 38.2%
[34]
  viability, T/C: 29.6%
[15]
  viability, T/C: 36.4%
[16]
  viability, T/C: 35.2%
[35]
  viability, T/C: 39.9%
[36]
  viability, T/C: 36.2%
[37]
  viability, T/C: 37.5%
[38]
  viability, T/C: 36.5%
[17]
  viability, T/C: 39.5%
[18]
  viability, T/C: 38.1%
[39]
  viability, T/C: 32.8%
[40]
  viability, T/C: 39.9%
[41]
  viability, T/C: 31.2%
[42]
  viability, T/C: 42.6%
